Source: the supplement of paper PMC4862054

Assays:
[1] = tested on: HCC1599; experiment: drug sensitivity score (DSS), CellTox Green (DSS (AUC-based score)); higher = stronger drug effect (viability inhibition or cytotoxicity); extreme values may be limits of the assay; conditions: incubation time: 72 h
Procedure, shortened: (§1)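 Each compound occupied 5 concentrations in 10-fold steps over its own 10,000-fold range in 384-well plates, into which breast cancer cell lines were seeded as 20 µl suspension. Following 72 h of incubation, CellTox Green fluorescence (485/520 nm) was measured, and CellTiter-Glo luminescence was measured after 10 min at room temperature. Plates were individually normalised to 0.1 % DMSO and a positive kill control. From the area under the fitted dose-response curve, a drug sensitivity score was calculated.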

[2] = tested on: Hs578T; experiment: as above; conditions: incubation time: 72 h
Procedure, shortened: as §1

[3] = tested on: MCF-10A; experiment: as above; conditions: incubation time: 72 h
Procedure, shortened: as §1

[4] = tested on: CAL-120; experiment: as above; conditions: incubation time: 72 h
Procedure, shortened: as §1

[5] = tested on: MFM-223; experiment: normalised response (% of control), CellTiter-Glo; higher = more viable cells (100 = DMSO, 0 = benzethonium chloride kill control); conditions: incubation time: 72 h
Procedure: (§2)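 DSRT, 72 h incubation, CellTox Green / CellTiter-Glo readout. Signal is normalised to DMSO and benzethonium chloride controls. Value is the normalised response at the highest dose.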

[6] = tested on: CAL-85-1; experiment: as above; conditions: incubation time: 72 h
Procedure: as §2

[7] = tested on: HCC1599; experiment: as above; conditions: incubation time: 72 h
Procedure: as §2

[8] = tested on: Hs578T; experiment: as above; conditions: incubation time: 72 h
Procedure: as §2

[9] = tested on: MCF-10A; experiment: as above; conditions: incubation time: 72 h
Procedure: as §2

[10] = tested on: HDQ-P1; experiment: as above; conditions: incubation time: 72 h
Procedure: as §2

[11] = tested on: HCC1143; experiment: as above; conditions: incubation time: 72 h
Procedure: as §2

[12] = tested on: CAL-148; experiment: as above; conditions: incubation time: 72 h
Procedure: as §2

[13] = tested on: SK-BR-3; experiment: as above; conditions: incubation time: 72 h
Procedure: as §2

[14] = tested on: HCC1937; experiment: as above; conditions: incubation time: 72 h
Procedure: as §2

[15] = tested on: BT-549; experiment: as above; conditions: incubation time: 72 h
Procedure: as §2

[16] = tested on: MDA-MB-468; experiment: as above; conditions: incubation time: 72 h
Procedure: as §2

[17] = tested on: DU-4475; experiment: as above; conditions: incubation time: 72 h
Procedure: as §2

[18] = tested on: MDA-MB-231; experiment: as above; conditions: incubation time: 72 h
Procedure: as §2

[19] = tested on: CAL-120; experiment: as above; conditions: incubation time: 72 h
Procedure: as §2

[20] = tested on: MDA-MB-453; experiment: as above; conditions: incubation time: 72 h
Procedure: as §2

[21] = tested on: CAL-51; experiment: as above; conditions: incubation time: 72 h
Procedure: as §2

[22] = tested on: BT-474; experiment: as above; conditions: incubation time: 72 h
Procedure: as §2

[23] = tested on: MDA-MB-436; experiment: as above; conditions: incubation time: 72 h
Procedure: as §2

[24] = tested on: MDA-MB-468; conditions: 72 h
Procedure, shortened: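 In this assay, breast cancer cell lines spent 72 h with compound at 5 concentrations in 10-fold steps over a compound-specific 10,000-fold range. The first readout was cell death by CellTox Green fluorescence, and the second was viability by CellTiter-Glo luminescence, each normalised per plate to 0.1 % DMSO and a positive kill control. EC50 came from the dose-response curves, censored at the top concentration.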

Row | EC50, CellTiter-Glo [24] | Structure (SMILES) | drug sensitivity score [1] | drug sensitivity score [2] | drug sensitivity score [3] | drug sensitivity score [4] | normalised response [5] | normalised response [6] | normalised response [7] | normalised response [8] | normalised response [9] | normalised response [10] | normalised response [11] | normalised response [12] | normalised response [13] | normalised response [14] | normalised response [15] | normalised response [16] | normalised response [17] | normalised response [18] | normalised response [19] | normalised response [20] | normalised response [21] | normalised response [22] | normalised response [23]
1 |  | CC1=C2C[C@H]3[C@@H](CC=C4C[C@@H](O)CC[C@@]43C)[C@@H]2CC[C@]12O[C@@H]1C[C@H](C)CN[C@H]1[C@H]2C [Cyclopamine] | 0 | 0 | 0 | 0 |  |  |  |  |  |  |  |  |  |  |  |  |  |  |  |  |  |  | 
2 |  | CC1=C2C[C@H]3[C@@H](CC=C4C[C@@H](O)CC[C@@]43C)[C@@H]2CC[C@]12O[C@@H]1C[C@H](C)CN[C@H]1[C@H]2C [Cyclopamine] (10000 nM) |  |  |  |  | 101% | 104% | 107% | 101% | 108% | 86% | 93.2% | 110% | 102% | 97.1% | 58% | 51.5% | 105% | 106% | 103% | 103% | 106% | 113% | 84.6%
3 |  | CC(=O)O[C@@]12CO[C@@H]1C[C@H](O)[C@@]1(C)C(=O)[C@H](O)C3=C(C)[C@@H](OC(=O)[C@H](O)[C@@H](NC(=O)OC(C)(C)C)c4ccccc4)C[C@@](O)([C@@H](OC(=O)c4ccccc4)[C@H]21)C3(C)C [Docetaxel] (1000 nM) |  |  |  |  | 48.9% | 28.9% | 29.6% | 13.6% | 48% | 64.2% | 38.3% | 45.5% | 10.7% | 73.8% | 17.1% | 34.9% | 44% | 28.5% | 55.3% | 44.4% | 32.9% | 39.3% | 32.8%
4 |  | C[C@]12CC[C@@H]3c4ccc(OC(=O)N(CCCl)CCCl)cc4CC[C@H]3[C@@H]1CC[C@@H]2O [Estramustine] | 0 |  | 0 | 0 |  |  |  |  |  |  |  |  |  |  |  |  |  |  |  |  |  |  | 
5 | > 10 µM | CC1(C)CNc2cc(NC(=O)c3cccnc3NCc3ccncc3)ccc21 [Motesanib] | 0 | 0 | 0 | 0 |  |  |  |  |  |  |  |  |  |  |  |  |  |  |  |  |  |  | 
6 |  | CC1(C)CNc2cc(NC(=O)c3cccnc3NCc3ccncc3)ccc21 [Motesanib] (10000 nM) |  |  |  |  | 88.1% | 95.8% | 107% | 91.8% | 95.4% | 92.5% | 94.8% | 86.9% | 86.3% | 97.8% | 97% | 87.6% | 98.6% | 93.5% | 103% | 91.6% | 122% | 90.9% | 95%
7 |  | CC[C@@H]1C(=O)OC[C@@H]1Cc1cncn1C [Pilocarpine] | 0 |  | 0 | 0 |  |  |  |  |  |  |  |  |  |  |  |  |  |  |  |  |  |  | 
8 |  | CC[C@@H]1C(=O)OC[C@@H]1Cc1cncn1C [Pilocarpine] (40000 nM) |  |  |  |  | 97.6% | 94.6% | 104% | 99% | 99.1% | 91.9% | 89.6% | 88.6% | 102% | 96.7% | 102% | 96% | 95.7% | 93.4% | 91.2% | 92.7% | 134% | 91.6% | 89.7%
9 |  | CC(C)(C)c1cnc(CSc2cnc(NC(=O)C3CCNCC3)s2)o1 [SNS-032] (10000 nM) |  |  |  |  | 32% | 7.47% | 7.5% | 8.34% | 17.1% | 24.3% | 15.1% | 77.1% | 4.26% | 38.6% | 5.15% | 6.47% | 10.3% | 8.77% | 43.3% | 56.4% | 16.7% | 31.8% | 18.2%
10 |  | Cn1cnc2c(F)c(Nc3ccc(Br)cc3Cl)c(C(=O)NOCCO)cc21 [Selumetinib] (10000 nM) |  |  |  |  | 67.9% | 61% | 72.7% | 76.4% | 31.8% | 56.3% | 76.6% | 76.1% | 92% | 76.3% | 84.1% | 69.9% | 0.53% | 62.4% | 66.8% | 93.8% | 106% | 55.5% | 85.4%
11 |  | Nc1nc2[nH]cnc2c(=S)[nH]1 [Thioguanine] (10000 nM) |  |  |  |  | 72.9% | 51.7% | 28.2% | 33.2% | 66.9% | 31.8% | 66.7% | 68.2% | 62.1% | 35.8% | 48.5% | 48.9% | 24.1% | 33.4% | 37% | 79% | 28.6% | 40.8% | 31.3%
